Here are results for 22 compounds from patent publication US9012651B2, “TRPV3 modulators” (AbbVie Inc., priority 2011, dated 2015).

Sequence of human TRPV3 receptors (Q8NET8 whole entry): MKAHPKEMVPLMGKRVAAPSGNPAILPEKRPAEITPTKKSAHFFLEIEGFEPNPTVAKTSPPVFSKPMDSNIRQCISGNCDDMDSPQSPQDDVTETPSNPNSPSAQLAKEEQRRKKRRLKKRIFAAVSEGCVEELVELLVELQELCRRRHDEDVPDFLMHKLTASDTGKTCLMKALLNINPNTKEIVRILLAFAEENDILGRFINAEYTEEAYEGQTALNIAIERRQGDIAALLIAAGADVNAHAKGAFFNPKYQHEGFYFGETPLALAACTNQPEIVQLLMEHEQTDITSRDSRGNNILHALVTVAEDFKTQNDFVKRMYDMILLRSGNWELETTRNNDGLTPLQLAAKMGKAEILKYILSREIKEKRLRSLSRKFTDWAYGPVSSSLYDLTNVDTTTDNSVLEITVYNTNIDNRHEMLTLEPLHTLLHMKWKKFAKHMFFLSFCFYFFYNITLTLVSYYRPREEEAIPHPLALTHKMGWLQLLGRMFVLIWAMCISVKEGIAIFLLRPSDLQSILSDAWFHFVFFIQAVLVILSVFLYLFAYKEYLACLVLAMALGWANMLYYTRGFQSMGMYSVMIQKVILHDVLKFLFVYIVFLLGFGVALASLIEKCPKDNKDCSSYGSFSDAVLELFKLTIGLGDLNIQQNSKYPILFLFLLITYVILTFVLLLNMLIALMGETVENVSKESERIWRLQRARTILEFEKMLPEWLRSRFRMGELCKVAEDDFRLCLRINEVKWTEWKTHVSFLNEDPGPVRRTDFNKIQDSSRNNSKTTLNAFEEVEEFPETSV

The first assay concerns the target human TRPV3 receptors (Homo sapiens (Human), UniProt Q8NET8). As to the kind of experiment: Calcium flux assay (FLIPR TETRA), inhibition of the 2-APB response. Conditions: recombinant HEK293 cells stably expressing TRPV3, Calcium-4 dye, 2-APB at its EC80. In kind it is cell-based. Summed up:
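Responses are given relative to the maximal 2-APB signal in the absence of compound, using peak fluorescence over baseline. Measured by FLIPR Tetra calcium flux in stable human and mouse TRPV3 HEK293 cells after 90-120 min dark dye incubation.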
Turning to `CC(C)[C@H](CO)NCc1nc(-c2ccc(C(F)(F)F)nc2)ccc1F` [Example 28, (2R)-2-({[5-fluoro-6′-(trifluoromethyl)-2,3′-bipyridin-6-yl]methyl}amino)-3-methylbutan-1-ol], the IC50 turned out to be 950 nM. In the case of `CC(C)[C@H](CO)NCc1nc(C2CCCCC2)ccc1F` [Example 129], the half-inhibitory concentration (IC50) came to 360 nM. The same measure, in the same setting: the result for `CC(C)[C@H](CO)NCc1nc(-c2cncc(Cl)c2)ccc1F` [Example 278, (2R)-2-{[(5′-chloro-5-fluoro-2,3′-bipyridin-6-yl)methyl]amino}-3-methylbutan-1-ol] reads 2690 nM; that for `CC(C)[C@H](CO)NCc1nc(-c2ccc(F)c(C#N)c2)ccc1F` [Example 279, 2-fluoro-5-[5-fluoro-6-({[(2R)-1-hydroxy-3-methylbutan-2-yl]amino}methyl)pyridin-2-yl]benzonitrile], 940 nM. Same read-out and setting: the result for `Cc1cc(-c2ccc(F)c(CN[C@@H](CO)C(C)C)n2)ccc1F` [Example 280, (2R)-2-({[3-fluoro-6-(4-fluoro-3-methylphenyl)pyridin-2-yl]methyl}amino)-3-methylbutan-1-ol] reads 250 nM; that for `CC(C)[C@H](CO)NCc1nc(-c2ccc(F)c(C(F)(F)F)c2)ccc1F` [Example 281, (2R)-2-[({3-fluoro-6-[4-fluoro-3-(trifluoromethyl)phenyl]pyridin-2-yl}methyl)amino]-3-methylbutan-1-ol], 390 nM; that for `CC(C)[C@H](CO)NCc1nc(-c2cc(C(F)(F)F)ccc2F)ccc1F` [Example 282, (2R)-2-[({3-fluoro-6-[2-fluoro-5-(trifluoromethyl)phenyl]pyridin-2-yl}methyl)amino]-3-methylbutan-1-ol], 370 nM. On the same count and under the same terms, the result for `COc1cc(-c2ccc(F)c(CN[C@@H](CO)C(C)C)n2)cc(F)c1F` [Example 283, (2R)-2-({[6-(3,4-difluoro-5-methoxyphenyl)-3-fluoropyridin-2-yl]methyl}amino)-3-methylbutan-1-ol] reads 260 nM; that for `CC(C)[C@H](CO)NCc1cccc(C#Cc2ccc(F)cc2F)n1` [Example 284, (2R)-2-[({6-[(2,4-difluorophenyl)ethynyl]pyridin-2-yl}methyl)amino]-3-methylbutan-1-ol], 520 nM; that for `CC(C)[C@H](CO)NCc1cccc(C#Cc2ccccc2F)n1` [Example 285, (2R)-2-[({6-[(2-fluorophenyl)ethynyl]pyridin-2-yl}methyl)amino]-3-methylbutan-1-ol], 990 nM. Turning to `CC(C)[C@H](CO)NCc1cccc(C#Cc2ccc(Cl)cc2)n1` [Example 286, (2R)-2-[({6-[(4-chlorophenyl)ethynyl]pyridin-2-yl}methyl)amino]-3-methylbutan-1-ol], the IC50 was 520 nM. The same measure, in the same setting: as for `Cc1nc(-c2ccccc2)sc1-c1ccc(F)c(CN[C@@H](CO)C(C)C)n1` [Example 287, (2R)-2-({[3-fluoro-6-(4-methyl-2-phenyl-1,3-thiazol-5-yl)pyridin-2-yl]methyl}amino)-3-methylbutan-1-ol], the figure is 730 nM. The same measure, in the same setting: as for `CC(C)[C@H](CO)NCc1nc(C#CCCC2CCCCC2)ccc1F` [Example 288, (2R)-2-({[6-(4-cyclohexylbut-1-yn-1-yl)-3-fluoropyridin-2-yl]methyl}amino)-3-methylbutan-1-ol], the figure is 170 nM; as for `CC(C)[C@H](CO)NCc1nc(C#Cc2ccccc2)ccc1F` [Example 289, (2R)-2-({[3-fluoro-6-(phenylethynyl)pyridin-2-yl]methyl}amino)-3-methylbutan-1-ol], 130 nM; as for `CC(C)[C@H](CO)NCc1nc(-c2ccc(C(F)(F)F)s2)ccc1F` [Example 290], 170 nM.

As to `CC(C)[C@H](CO)NCc1nc(-c2cc(C(F)(F)F)nn2C)ccc1F` [Example 291, (2R)-2-[({3-fluoro-6-[1-methyl-3-(trifluoromethyl)-1H-pyrazol-5-yl]pyridin-2-yl}methyl)amino]-3-methylbutan-1-ol], the IC50 was found to be 790 nM. Consider `CC(C)[C@H](CO)NCc1nc(-c2cncc(C(F)(F)F)c2)ccc1F` [Example 292, (2R)-2-({[5-fluoro-5′-(trifluoromethyl)-2,3′-bipyridin-6-yl]methyl}amino)-3-methylbutan-1-ol], for which the IC50 worked out at 280 nM. `CC(C)[C@H](CO)NCc1nc(-c2ccc(C(F)(F)F)cc2C(F)(F)F)ccc1F` [Example 293, (2R)-2-[({6-[2,4-bis(trifluoromethyl)phenyl]-3-fluoropyridin-2-yl}methyl)amino]-3-methylbutan-1-ol]: the IC50 amounted to 550 nM. `CC(C)[C@H](CO)NCc1nc(-c2ccc(F)c(Cl)c2)ccc1F` [Example 294, (2R)-2-({[6-(3-chloro-4-fluorophenyl)-3-fluoropyridin-2-yl]methyl}amino)-3-methylbutan-1-ol]: the IC50 was found to be 120 nM. For “{1-[({2-[5-(trifluoromethyl)pyridin-2-yl]pyrimidin-4-yl}methyl)amino]cyclohexyl}methanol [Example 193]”, the IC50 was > 20000 nM.

Another assay relates to mouse Chronic Constriction Injury Model of neuropathic pain. As to the kind of experiment: Chronic Constriction Injury (CCI) model of neuropathic pain, mechanical allodynia (von Frey). Conditions: CD1 mice; acute oral administration, 100 mg/kg oral dose; 1 hour pretreatment P.O.; von Frey monofilaments. In kind it is in vivo. An excerpt:
Chronic Constriction Injury (CCI) Model of Neuropathic Pain:
CD1 mice (Charles River) were used for these studies. Prior to testing (2-4 weeks) animals underwent a surgical procedure consisting of approximately 3 loose ligatures around the sciatic nerve. Briefly, following sterilization procedures, under isofluorane anesthetic, a 1.5 cm incision was made dorsal to the pelvis. The biceps femoris and gluteous superficialis (right side) were separated and the sciatic nerve exposed, isolated, and 2-4 loose ligatures (5-0 chromic gut) with <1 mm spacing were placed around it. Following hemostasis, the wound was sutured (layer of muscle closed with 5-0 nylon suture, and the wound closed with surgical staples) and coated with iodine. The mice were allowed to recover on a warming plate and are returned to their home cages (soft bedding) when able to walk on their own. Two to four weeks after the surgery, TRPV3 antagonsists were tested in these mice following P.O. (1 hour pretreatment) or I.P. (30 minutes pretreatment) dosing, and mechanical allodynia evaluated where the threshold to response was assessed using calibrated von Frey monofilaments. The von Frey monofilaments were applied to the hind paw at increasing forces until the animal responded by lifting its paw. […]
On to `CC(C)[C@H](CO)NCc1nc(-c2ccc(C(F)(F)F)nc2)ccc1F` [Example 28, (2R)-2-({[5-fluoro-6′-(trifluoromethyl)-2,3′-bipyridin-6-yl]methyl}amino)-3-methylbutan-1-ol], for which the “effects vs. vehicle in the mouse Chronic Constriction Injury Model of neuropathic pain” value is listed as “statistically significant effects vs. vehicle”. For `CC(C)[C@H](CO)NCc1nc(C2CCCCC2)ccc1F` [Example 129], the “effects vs. vehicle in the mouse Chronic Constriction Injury Model of neuropathic pain” value was “statistically significant effects vs. vehicle”.

The subject of another assay is TRPV3.
Assay: not given
Conditions: TRPV3 activation; relatively weak and nonspecific across TRPs; cited from earlier work.
As to `c1ccc(B(OB(c2ccccc2)c2ccccc2)c2ccccc2)cc1` [DPBA, diphenylboronic anhydride], the concentration for a half-maximal effect (EC50) was ~40000 nM. As for `NCCOB(c1ccccc1)c1ccccc1` [Example 2-APB, 2-aminoethoxydiphenylborate], the EC50 was ~40000 nM.
